Assays:
[1] = target: protein kinase C; assay: Inhibition of protein kinase C activated with phosphatidylserine and diacylglycerol (in vitro enzyme assay); type: biochemical; details: for IC50: activated with phosphatidylserine and diacylglycerol, read-out: Inhibiton (IC50) C-Kinase
[2] = target: T1, cAMP-dependent protein kinase (catalytic subunit) (Homo sapiens, UniProt P17612); assay: cAMP-dependent protein kinase (A kinase) test, 32P-phosphate incorporation into histone; type: biochemical
T1 construct: purchased
Method: (§1) The determination the inhibition of the cAMP- and of the cGMP-dependent protein kinase took place according to the test description below.
cAMP-dependent protein kinase: The measurement of the activity takes place with the commercially available catalytic subunits of the enzyme. The incorporation of phosphorus 32-labeled phosphate into histone is thereby measured. A reaction batch of 200 μL contains the following components: 50 mM PIPES-NaOH (pH 7.5), 10 mM magnesium chloride, 1 mM DTT, 40 μM ATP, as well as 50 μg histone H-2B. The test is carried out as in the case of G kinase. The reaction is thereby started by the addition of 6 units of the catalytic subunit of the cAMP-dependent protein kinase.

[3] = target: T2, cGMP-dependent protein kinase (Bos taurus, UniProt P00516); assay: cGMP-dependent protein kinase (G kinase) test, 32P-phosphate incorporation into histone; type: biochemical, bovine
T2 construct: The enzyme was obtained from bovine lung tissue and purified; from tissue; host or cells: bovine lung
T2 sequence (P00516 1-671): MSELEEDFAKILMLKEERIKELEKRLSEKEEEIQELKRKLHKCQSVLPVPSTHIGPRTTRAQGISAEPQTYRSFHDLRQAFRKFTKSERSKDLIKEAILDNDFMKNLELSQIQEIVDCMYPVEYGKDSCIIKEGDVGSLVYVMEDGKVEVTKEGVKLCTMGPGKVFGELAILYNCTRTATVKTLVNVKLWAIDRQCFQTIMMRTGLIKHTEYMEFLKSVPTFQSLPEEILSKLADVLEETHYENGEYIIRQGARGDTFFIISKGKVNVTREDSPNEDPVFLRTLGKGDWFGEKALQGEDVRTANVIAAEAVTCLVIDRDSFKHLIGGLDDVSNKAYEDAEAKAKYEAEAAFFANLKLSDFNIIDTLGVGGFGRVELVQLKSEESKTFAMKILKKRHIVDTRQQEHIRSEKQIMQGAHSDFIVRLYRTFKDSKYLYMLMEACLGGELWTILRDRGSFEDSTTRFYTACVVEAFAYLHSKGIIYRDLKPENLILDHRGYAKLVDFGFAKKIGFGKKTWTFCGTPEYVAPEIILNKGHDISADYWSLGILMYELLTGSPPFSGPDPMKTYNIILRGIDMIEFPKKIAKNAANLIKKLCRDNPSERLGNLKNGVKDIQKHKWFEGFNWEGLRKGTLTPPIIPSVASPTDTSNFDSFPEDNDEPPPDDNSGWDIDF
Method: as §1
cGMP-dependent protein kinase: The enzyme was obtained from bovine lung tissue and purified and its activity determined via the incorporation of phosphorus 32-labeled phosphate into histone. The following components are contained in a test batch of 200 μL: 20 mM Tris-HCl (pH 7.4), 5 mM magnesium chloride, 1 mM DTT, 10 μM ATP, […], 40 μg BSA, 2% glycerol, as well as 10 μg histone II-A and possibly the substance to be investigated. […] After incubating for 5 minutes at 30° C., the reaction is stopped by the addition of 10% trichloroacetic acid and the samples then filtered off over a nitrocellulose filter. The phosphate incorporation is determined by Cerenkov counting in a scintillation counter and the percentage inhibition calculated therefrom.

Row | Compound | IC50 [1] [nM] | IC50 [2] [nM] | Ratio IC50 kinase / IC50 C-Kinase, A/C ([2]; A-kinase versus C-kinase) | IC50 [3] [nM] | Ratio IC50 kinase / IC50 C-Kinase, G/C ([3]; G-kinase versus C-kinase) | inhibition of protein kinase C at a single concentration ([1]; concentration of 10^-5 M, same conditions of the in vitro enzyme assay)
1 | O=C1NC(=O)c2c1c1c3ccccc3n3c1c1c2c2ccccc2n1C1CCC3O1 [I, 9,10,11,12-tetrahydro-9,l2-epoxy-1H-diindolo[1,2,3-fg: 3',2',1',kl]pyrrolo[3,4-i][1,6]benzodiazocine-1,3(2H)-dione] | 28 | 5500 | 196 | 520 | 19 | –
2 | O=C1c2c(c3c4ccccc4n4c3c3c2c2ccccc2n3C2CCC4O2)C(=O)N1Cc1ccccc1 [III] | > 10000 | – | – | – | – | does not display a significant inhibition
